According to patent US20040014047A1, “Antisense modulation of LIM domain kinase 1 expression” (Isis Pharmaceuticals Inc., priority 2002, published 2004):
Strand notation (5' to 3'): a small letter for the sugar, then the base; units joined by * are phosphorothioate-linked, units joined directly phosphodiester-linked; [ ] holds rarer units or linkages, { } end groups; capitals alone tell only the bases. e = 2'-O-(2-methoxyethyl) (MOE); [5mC] = 5-methylcytosine; d = 2'-deoxy (DNA)

system: human LIM domain kinase 1 mRNA; test: Antisense inhibition of human LIM domain kinase 1 mRNA levels, quantitative real-time PCR, A549 cells (screen); format: cell-based; conditions: quantitative real-time PCR, averages from two experiments, screening concentration not given (50 nM to 300 nM used herein)
Description: When cells reached 70% confluency, they were treated with oligonucleotide. […] Cells were harvested 16-24 hours after oligonucleotide treatment.
Vacuum was applied for 1 minute.
PCR reagents were obtained from Invitrogen Corporation, (Carlsbad, Calif.).
Total RNA is quantified using RiboGreenTM RNA quantification reagent from Molecular Probes.
Probes and primers to human LIM domain kinase 1 were designed to hybridize to a human LIM domain kinase 1 sequence, using published sequence information (GenBank accession number D26309.1, incorporated herein as SEQ ID NO:4). For human LIM domain kinase 1 the PCR primers were: forward primer: […] (SEQ ID NO: 5) reverse primer: […] (SEQ ID NO: 6) and the PCR probe was: FAM-[…]-TAMRA (SEQ ID NO: 7) where FAM is the fluorescent dye and TAMRA is the quencher dye.
All cytidine residues are 5-methylcytidines. […] Data are averages from two experiments in which A549 cells were treated with the oligonucleotides of the present invention. […] If present, “N.D.” indicates “no data”.

In order of rising “% INHIB (inhibition of human LIM domain kinase 1 mRNA levels)” value:
1. 206165 (e[5mC]*e[5mC]*e[5mC]*eT*e[5mC]*d[5mC]*dA*dG*dG*dT*dG*d[5mC]*dA*dA*d[5mC]*eA*eA*eA*eG*eT) [compound 206165]  22%
2. 206168 (eT*e[5mC]*eT*e[5mC]*e[5mC]*d[5mC]*dA*dT*dA*d[5mC]*dG*dT*dT*d[5mC]*dT*eT*e[5mC]*e[5mC]*e[5mC]*eT; antisense) [compound 206168]  36%
3. 206194 (antisense eG*eA*e[5mC]*e[5mC]*e[5mC]*dA*dG*dG*dT*d[5mC]*d[5mC]*dT*dT*dG*d[5mC]*eG*e[5mC]*eT*eG*eG) [compound 206194]  41%
4. 206170 (eG*e[5mC]*eA*eA*e[5mC]*dT*d[5mC]*dG*d[5mC]*dT*dT*d[5mC]*d[5mC]*dT*dT*e[5mC]*e[5mC]*eT*e[5mC]*eT; antisense) [compound 206170]  43%
5. 206196 (antisense eA*e[5mC]*e[5mC]*eT*eT*d[5mC]*dA*d[5mC]*d[5mC]*dT*d[5mC]*d[5mC]*dT*dT*dG*eA*eG*eG*eA*eA) [compound 206196]  47%
6. 206181 (antisense eT*e[5mC]*eT*eT*e[5mC]*dA*d[5mC]*dA*dT*d[5mC]*dT*dG*dG*dG*d[5mC]*eT*e[5mC]*eA*eT*eG) [compound 206181]  54%
7. 206192 (antisense eA*eG*e[5mC]*eT*e[5mC]*d[5mC]*dT*d[5mC]*dA*dA*dG*dA*d[5mC]*dA*dG*eG*eT*eT*eT*e[5mC]) [compound 206192]  54%
8. 206187 (antisense eT*e[5mC]*eA*eG*e[5mC]*dT*dG*dG*dA*dG*d[5mC]*dA*dG*dG*d[5mC]*eG*eG*e[5mC]*eT*eG) [compound 206187]  60%
9. 206191 (antisense e[5mC]*eT*e[5mC]*eA*eA*dG*dA*d[5mC]*dA*dG*dG*dT*dT*dT*d[5mC]*eT*eG*e[5mC]*e[5mC]*eG) [compound 206191]  62%
10. 206169 (e[5mC]*eT*eT*e[5mC]*e[5mC]*dT*d[5mC]*dT*d[5mC]*d[5mC]*d[5mC]*dA*dT*dA*d[5mC]*eG*eT*eT*e[5mC]*eT; antisense) [compound 206169]  67%
11. 206193 (antisense eA*eG*eG*eT*e[5mC]*d[5mC]*dT*dT*dG*d[5mC]*dG*d[5mC]*dT*dG*dG*eG*eA*eG*eG*e[5mC]) [compound 206193]  67%
12. 206199 (antisense eT*eG*eT*e[5mC]*e[5mC]*dA*dT*dG*d[5mC]*dT*d[5mC]*dT*dT*dG*dA*eT*eG*eA*eT*eG) [compound 206199]  68%
13. 206178 (antisense eA*eG*eT*eA*e[5mC]*dA*dG*d[5mC]*dT*dT*dG*dG*dA*dG*dT*eG*e[5mC]*eT*e[5mC]*e[5mC]) [compound 206178]  69%
14. 206166 (eT*eT*e[5mC]*eT*eT*d[5mC]*d[5mC]*d[5mC]*dT*d[5mC]*d[5mC]*dA*dG*dG*dT*eG*e[5mC]*eA*eA*e[5mC]; antisense) [compound 206166]  70%
15. 206173 (eA*eG*eT*eA*eG*dT*d[5mC]*d[5mC]*dT*dT*d[5mC]*dT*dT*dG*d[5mC]*eA*eG*eA*eA*eG; antisense) [compound 206173]  71%
16. 206188 (antisense eT*e[5mC]*eG*eA*eG*dG*dG*dT*d[5mC]*dA*dG*d[5mC]*dT*dG*dG*eA*eG*e[5mC]*eA*eG) [compound 206188]  71%
17. 206197 (antisense eG*e[5mC]*eA*eT*e[5mC]*dG*d[5mC]*dA*dT*dG*dA*d[5mC]*d[5mC]*dT*dT*e[5mC]*eA*e[5mC]*e[5mC]*eT) [compound 206197]  71%
18. 206186 (antisense eG*eG*e[5mC]*eG*eT*dG*d[5mC]*d[5mC]*dA*dT*dT*dG*dA*dT*dT*eT*e[5mC]*e[5mC]*eA*eA) [compound 206186]  72%
19. 206195 (antisense eT*e[5mC]*eA*e[5mC]*eG*dG*dT*dG*dT*dG*dT*d[5mC]*dA*d[5mC]*d[5mC]*eT*eT*eG*eA*eT) [compound 206195]  73%
20. 206162 (e[5mC]*eT*eG*e[5mC]*eT*dG*d[5mC]*dA*dG*d[5mC]*d[5mC]*dG*dT*dA*dT*eG*eA*eA*eA*eA; antisense) [compound 206162]  74%
21. 206184 (antisense eA*eT*eT*eT*e[5mC]*d[5mC]*dA*dA*dG*dA*dT*d[5mC]*d[5mC]*dG*dG*eT*e[5mC]*eT*e[5mC]*e[5mC]) [compound 206184]  74%
22. 206201 (antisense eA*eG*eG*eT*eA*dG*dG*d[5mC]*d[5mC]*dA*dT*d[5mC]*d[5mC]*d[5mC]*dT*eG*eA*eT*eG*e[5mC]) [compound 206201]  74%
23. 206164 (e[5mC]*eA*eG*eG*eT*dG*d[5mC]*dA*dA*d[5mC]*dA*dA*dA*dG*dT*eA*eG*e[5mC]*eG*eT; antisense) [compound 206164]  75%
24. 206179 (antisense eG*e[5mC]*eA*eG*eT*dG*d[5mC]*d[5mC]*d[5mC]*dG*d[5mC]*dA*dG*dT*dA*e[5mC]*eA*eG*e[5mC]*eT) [compound 206179]  75%
25. 206172 (eT*e[5mC]*e[5mC]*eT*eT*d[5mC]*dT*dT*dG*d[5mC]*dA*dG*dA*dA*dG*eA*eG*e[5mC]*eT*eG; antisense) [compound 206172]  76%
26. 206200 (antisense e[5mC]*eT*eG*eG*e[5mC]*dT*dG*dT*d[5mC]*d[5mC]*dA*dT*dG*d[5mC]*dT*e[5mC]*eT*eT*eG*eA) [compound 206200]  76%
27. 206180 (antisense eA*e[5mC]*eA*eT*e[5mC]*dT*dG*dG*dG*d[5mC]*dT*d[5mC]*dA*dT*dG*e[5mC]*eA*eG*e[5mC]*e[5mC]) [compound 206180]  77%
28. 206163 (eG*eT*e[5mC]*eA*eA*d[5mC]*d[5mC]*dT*d[5mC]*dA*dT*dG*d[5mC]*dA*d[5mC]*eT*e[5mC]*eG*eA*e[5mC]; antisense) [compound 206163]  79%
29. 206183 (antisense eT*eG*eG*eA*eT*dG*dG*dA*dA*dT*dT*d[5mC]*dT*dT*d[5mC]*eA*e[5mC]*eA*eT*e[5mC]) [compound 206183]  79%
30. 206189 (antisense eG*eT*eT*eT*e[5mC]*dT*dG*d[5mC]*d[5mC]*dG*dG*dG*d[5mC]*dA*dG*eA*eG*e[5mC]*eT*eG) [compound 206189]  81%
31. 206161 (eA*eA*e[5mC]*e[5mC]*eT*d[5mC]*dA*dT*dG*d[5mC]*dA*d[5mC]*dT*d[5mC]*dG*eA*e[5mC]*eG*eG*eG; antisense) [compound 206161]  82%
32. 206171 (eA*eG*eG*eG*e[5mC]*d[5mC]*dT*dG*dG*dA*dG*dG*dT*dA*d[5mC]*eT*eG*eG*e[5mC]*e[5mC]; antisense) [compound 206171]  83%
33. 206175 (antisense eT*eA*eG*e[5mC]*eG*dG*dG*d[5mC]*d[5mC]*d[5mC]*dA*dG*dT*dA*dG*eT*e[5mC]*e[5mC]*eT*eT) [compound 206175]  83%
34. 206167 (eA*eT*eA*e[5mC]*eG*dT*dT*d[5mC]*dT*dT*d[5mC]*d[5mC]*d[5mC]*dT*d[5mC]*e[5mC]*eA*eG*eG*eT; antisense) [compound 206167]  85%
35. 206177 (antisense eA*eG*e[5mC]*eT*eT*dG*dG*dA*dG*dT*dG*d[5mC]*dT*d[5mC]*d[5mC]*eA*e[5mC]*e[5mC]*eA*eG) [compound 206177]  86%
36. 206182 (antisense eG*eG*eA*eA*eT*dT*d[5mC]*dT*dT*d[5mC]*dA*d[5mC]*dA*dT*d[5mC]*eT*eG*eG*eG*e[5mC]) [compound 206182]  86%
37. 206185 (antisense eG*e[5mC]*e[5mC]*eA*eT*dT*dG*dA*dT*dT*dT*d[5mC]*d[5mC]*dA*dA*eG*eA*eT*e[5mC]*e[5mC]) [compound 206185]  86%
38. 206198 (antisense eT*e[5mC]*e[5mC]*eA*eG*dG*d[5mC]*dA*dT*d[5mC]*dG*d[5mC]*dA*dT*dG*eA*e[5mC]*e[5mC]*eT*eT) [compound 206198]  86%
39. 206174 (antisense eG*eG*e[5mC]*e[5mC]*e[5mC]*dA*dG*dT*dA*dG*dT*d[5mC]*d[5mC]*dT*dT*e[5mC]*eT*eT*eG*e[5mC]) [compound 206174]  87%
40. 206176 (antisense e[5mC]*eG*e[5mC]*e[5mC]*eA*dT*dA*dG*d[5mC]*dG*dG*dG*d[5mC]*d[5mC]*d[5mC]*eA*eG*eT*eA*eG) [compound 206176]  87%
41. 206190 (antisense eG*eA*e[5mC]*eA*eG*dG*dT*dT*dT*d[5mC]*dT*dG*d[5mC]*d[5mC]*dG*eG*eG*e[5mC]*eA*eG) [compound 206190]  88%
